Converted amounts (≈) assume the structure as drawn. Bounds are passed on as bounds.

Data set [1] addresses T1, Recombinant human MMP12 catalytic domain (Homo sapiens, UniProt P39900).
T1 construct: Recombinant human MMP12 catalytic domain; made in house
Description: MMP12 isolated enzyme assay. The data set is classed as biochemical. The settings on record: read-out: hMMP12 IC50. As for the experimental part: Recombinant human MMP12 catalytic domain may be expressed and purified as described by Parkar A. A. et al, (2000), Protein Expression and Purification, 20, 152. The purified enzyme can be used to monitor inhibitors of activity as follows: MMP12 (50 ng/ml final concentration) is incubated for 60 minutes at room temperature with the synthetic substrate Mca-Pro-Cha-Gly-Nva-His-Ala-Dpa-NH2 (10 μM) in assay buffer (0.1M “Tris-HCl”™ buffer, pH 7.3 containing 0.1M NaCl, 20 mM CaCl2, 0.020 mM ZnCl and 0.05% (w/v) “Brij 35”™ detergent) in the presence (10 concentrations) or absence of inhibitors. Activity is determined by measuring the fluorescence at λex 320 nm and λem 405 nm. Percent inhibition is calculated as follows: % Inhibition is equal to the [Fluorescenceplus inhibitor−Fluorescencebackground] divided by the [Fluorescenceminus inhibitor−Fluorescencebackground]. MMP8

In data set [2] the target is T2, Recombinant human MMP9 catalytic domain (Homo sapiens, UniProt P14780).
T2 sequence (P14780 with tags, fused parts or gaps DEL216-390 limits assumed): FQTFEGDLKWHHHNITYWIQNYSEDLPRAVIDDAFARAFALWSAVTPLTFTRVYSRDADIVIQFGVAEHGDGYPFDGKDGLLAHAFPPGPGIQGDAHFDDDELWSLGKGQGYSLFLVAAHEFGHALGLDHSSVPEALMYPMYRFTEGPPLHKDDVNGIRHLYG
Briefly: MMP9 isolated enzyme assay. The data set is classed as biochemical. The settings on record: read-out: hMMP9 IC50. Here is the method:
Recombinant human MMP9 catalytic domain was expressed and then purified by Zn chelate column chromatography followed by hydroxamate affinity column chromatography. The enzyme can be used to monitor inhibitors of activity as follows: MMP9 (5 ng/ml final concentration) is incubated for 30 minutes at RT with the synthetic substrate Mca-Pro-Cha-Gly-Nva-His-Ala-Dpa-NH2 (5 μM) in assay buffer (0.1M “Tris-HCl”™ buffer, pH 7.3 containing 0.1M NaCl, 20 mM CaCl2, 0.020 mM ZnCl and 0.05% (w/v) “Brij 35”™ detergent) in the presence (10 concentrations) or absence of inhibitors. Activity is determined by measuring the fluorescence at λex 320 nm and λem 405 nm. Percent inhibition is calculated as follows: % Inhibition is equal to the [Fluorescenceplus inhibitor−Fluorescencebackground] divided by the [Fluorescenceminus inhibitor−Fluorescencebackground]. MMP14
A protocol for testing against other matrix metalloproteinases, including MMP9, using expressed and purified pro MMP is described, for instance, by C. Graham Knight et al., (1992) FEBS Lett., 296(3), 263-266.

For the next data set, the target named is T3, MMP8 (Homo sapiens, UniProt P22894).
T3 construct: purchased Calbiochem
Description: MMP8 isolated enzyme assay. Type of data set: biochemical. The settings on record: read-out: hMMP8 IC50. Here is the method:
Purified pro-MMP8 is purchased from Calbiochem. The enzyme (at 10 μg/ml) is activated by p-amino-phenyl-mercuric acetate (APMA) at 1 mM for 2.5 h, 35° C. The activated enzyme can be used to monitor inhibitors of activity as follows: MMP8 (200 ng/ml final concentration) is incubated for 90 minutes at 35° C. (80% H2O) with the synthetic substrate Mca-Pro-Cha-Gly-Nva-His-Ala-Dpa-NH2 (12.5 μM) in assay buffer (0.1M “Tris-HCl”™ buffer, pH 7.5 containing 0.1M NaCl, 30 mM CaCl2, 0.040 mM ZnCl and 0.05% (w/v) “Brij 35”™ detergent) in the presence (10 concentrations) or absence of inhibitors. Activity is determined by measuring the fluorescence at λex 320 nm and λem 405 nm. Percent inhibition is calculated as follows: % Inhibition is equal to the [Fluorescenceplus inhibitor−Fluorescencebackground] divided by the [Fluorescenceminus inhibitor−Fluorescencebackground]. MMP9

Data set [3] deals with T4, Recombinant human MMP14 catalytic domain (Homo sapiens, UniProt P50281).
T4 construct: Recombinant human MMP14 catalytic domain; made in house
Briefly: MMP14 isolated enzyme assay. The data set is classed as biochemical. The settings on record: read-out: hMMP14 IC50. As for the experimental part:
Recombinant human MMP14 catalytic domain may be expressed and purified as described by Parkar A. A. et al, (2000), Protein Expression and Purification, 20, 152. The purified enzyme can be used to monitor inhibitors of activity as follows: MMP14 (10 ng/ml final concentration) is incubated for 60 minutes at room temperature with the synthetic substrate Mca-Pro-Cha-Gly-Nva-His-Ala-Dpa-NH2 (10 μM) in assay buffer (0.1M “Tris-HCl” (trade mark) buffer, pH 7.5 containing 0.1M NaCl, 20 mM CaCl2, 0.020 mM ZnCl and 0.05% (w/v) “Brij 35”™ detergent) in the presence (5 concentrations) or absence of inhibitors. Activity is determined by measuring the fluorescence at λex 320 nm and λem 405 nm. Percent inhibition is calculated as follows: % Inhibition is equal to the [Fluorescenceplus inhibitor−Fluorescencebackground] divided by the [Fluorescenceminus inhibitor−Fluorescencebackground].

Data set [4] is described as follows: Solubility in 0.1M phosphate buffer, pH 7.4. The data set is classed as physicochemical. The conditions noted are these: aqueous buffer, thermodynamic from solid, pH 7.4, 20° C. Here is the method:
Protocol for Determination of Solubility
The test compound (1 mg) was weighed into a 2 mL glass vial with a screw cap and 0.1M phosphate buffer pH 7.4. (1.00 mL) was added. The sample vial was then sonicated for about 10 minutes and then placed on a shake board overnight at 20° C. The contents of the sample vial were then filtered through a Millipore Millex-LH 0.45 μm filter into a new 2 mL glass vial to give a clear solution. The clear solution (40 μL) was transferred to a new 2 mL glass vial and diluted with 0.1M phosphate buffer, pH 7.4 (960 μL).
A standard calibration curve for each particular test compound was established using solutions of known concentration. These solutions of known concentration were normally chosen to have concentrations of ˜10 μg/mL and ˜50 μg/mL. They were prepared by dissolving a known weight of the compound in 99.5% ethanol (500 μL) and then sonicating for one minute if necessary. If the compound was still not completely dissolved, DMSO (500 μL) was added and the mixture sonicated for an additional one minute. The resulting solution was then diluted to the appropriate volume with a mixture of acetonitrile/100 mM ammonium acetate pH 5.5 20-50/80-50. If necessary, a further, more dilute, standard solution was prepared by dilution.

Another data set deals with plasma protein. Briefly: Plasma protein binding by ultrafiltration. Type of data set: in vitro ADME. The conditions noted are these: 10 μM. As for the experimental part:
Plasma protein binding was determined by ultrafiltration in an automated 96 well format assay. On each test occasion the plasma protein binding of a reference compound (budesonide) was monitored in parallel.
Test compounds (10 mM dissolved in DMSO) were added to plasma to a final concentration of 10 μM and equilibrated at room temperature for 10 minutes. 350 μL of the plasma was transferred to an ultrafiltration plate, Microcon-96 (10 kDa cutoff, Millipore). The ultrafiltration plate was centrifuged at 3000 G for 70 minutes at room temperature. After centrifugation, the concentration of the compounds in the obtained plasma water (the unbound fraction) was determined by LC-MS/MS using a 3-point calibration curve and compared to the concentration in the original spiked plasma.
The analyses were performed using a gradient chromatographic system with acetic acid/acetonitrile as mobile phases. The detection was done using a triple quadropole mass spectrometer, API3000 or API4000, from Applied Biosystems, with an electrospray interface.

T1 sequence (P39900 106-263 limits assumed): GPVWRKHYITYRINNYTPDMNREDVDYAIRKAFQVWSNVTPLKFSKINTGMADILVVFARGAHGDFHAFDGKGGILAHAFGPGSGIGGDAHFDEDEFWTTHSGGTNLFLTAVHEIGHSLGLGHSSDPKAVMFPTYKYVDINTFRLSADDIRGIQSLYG
T3 sequence (P22894 101-467): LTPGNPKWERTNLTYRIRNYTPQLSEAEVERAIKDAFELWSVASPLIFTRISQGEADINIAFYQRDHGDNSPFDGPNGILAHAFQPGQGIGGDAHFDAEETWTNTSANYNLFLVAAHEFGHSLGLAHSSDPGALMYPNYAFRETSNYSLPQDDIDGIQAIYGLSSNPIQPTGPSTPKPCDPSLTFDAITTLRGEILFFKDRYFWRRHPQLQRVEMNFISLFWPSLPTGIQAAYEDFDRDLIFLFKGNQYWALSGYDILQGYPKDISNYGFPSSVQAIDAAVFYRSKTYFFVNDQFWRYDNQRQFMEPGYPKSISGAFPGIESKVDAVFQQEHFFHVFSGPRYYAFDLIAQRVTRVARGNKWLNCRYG

Take `CCc1ccc(C#CC2=CCN(S(=O)(=O)C[C@@]3(C)NC(=O)NC3=O)CC2)cn1` [Example 4, (5S)-5-({[4-[(6-Ethylpyridin-3-yl)ethynyl]-3,6-dihydropyridin-1-(2H)-yl]sulfonyl}methyl)-5-methylimidazolidine-2,4-dione]: the IC50 in data set [1] is 0.003 µM; in data set [2], 0.008 µM; at MMP8, 0.78 µM; in data set [3], more than 10 µM. The concentration in solution in data set [4] (solubility) was 1300 µM (≈ 522 µg/mL). In the data set on plasma protein, the “Protein binding (% free)” value amounted to 9.7 % free.
As for `C[C@]1(CS(=O)(=O)N2CC=C(C#Cc3ccc(C(F)(F)F)nc3)CC2)NC(=O)NC1=O` [Example 5, (5S)-5-Methyl-5-({[4-{[6-(trifluoromethyl)pyridin-3-yl]ethynyl}-3,6-dihydropyridin-1(2H)-yl]sulfonyl}methyl)imidazolidine-2,4-dione], the IC50 was 0.005 µM in data set [1], 0.007 µM in data set [2], 0.43 µM on MMP8 and more than 10 µM in data set [3]. The same compound gave a solubility in data set [4] of 41 µM (≈ 18.1 µg/mL).
For `C[C@]1(CS(=O)(=O)N2CC=C(C#Cc3ccccn3)CC2)NC(=O)NC1=O` [WO 02/074767, page 119, (5S)-5-methyl-5-({[4-(pyridin-2-ylethynyl)-3,6-dihydropyridin-1(2H)-yl]sulfonyl}-methyl)-imidazolidine-2,4-dione, reference compound] the same measures were 0.14 µM, 11.2 µM, more than 1 µM, more than 1 µM and 1600 µM (≈ 598 µg/mL).

For the origin of these results see US20080004317A1, “Compounds” (AstraZeneca AB, priority 2004, published 2008).
